Data published in the supplement of paper PMC4862054.

Legend:
Conditions in all cases: incubation time: 72 h
HCC1937 = experiment: normalised response (% of control), CellTiter-Glo; higher = more viable cells (100 = DMSO, 0 = benzethonium chloride kill control)
Outline: (§1)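 The table gives the normalised signal for a single concentration in each entry. Breast cancer cell lines were seeded (20 µl suspension) into 384-well plates holding compound at 5 concentrations in 10-fold steps over a compound-specific 10,000-fold range and incubated 72 h, then read for CellTox Green fluorescence (485/520 nm) and CellTiter-Glo luminescence. Normalisation on each plate used 0.1 % DMSO (100) and a positive kill control (0).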

MDA-MB-231 [1] = experiment: as above
Outline: as §1

MDA-MB-468 [2] = experiment: as above
Outline: as §1

SK-BR-3 = experiment: as above
Outline: as §1

MFM-223 = experiment: as above
Outline: as §1

CAL-148 [3] = experiment: as above
Outline: as §1

HDQ-P1 = experiment: normalised viability (% of control), CellTiter-Blue; higher = more viable cells (about 100 = DMSO control)
Procedure: (§2)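 DSRT, CellTiter-Blue viability, 72 h incubation. Signal is normalised to DMSO and benzethonium chloride controls. Value is the normalised response at dose 9.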

MDA-MB-453 = experiment: as above
Procedure: as §2

CAL-51 [4] = experiment: as above
Procedure: as §2

DU-4475 [5] = experiment: as above
Procedure: as §2

CAL-85-1 [6] = experiment: as above
Procedure: as §2

CAL-148 [7] = experiment: as above
Procedure: as §2

MDA-MB-436 = experiment: drug sensitivity score (DSS), CellTox Green (DSS (AUC-based score)); higher = stronger drug effect (viability inhibition or cytotoxicity); extreme values may be limits of the assay
Outline: (§3)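 After 72 h of incubation in 384-well plates with compound at 5 concentrations (10-fold steps, 10,000-fold range set per compound), breast cancer cell lines seeded in 20 µl suspension were read first for CellTox Green fluorescence at 485/520 nm. CellTiter-Glo luminescence was measured next, after 10 min at room temperature. Normalisation on each plate used 0.1 % DMSO and a positive kill control, and the drug sensitivity score was computed from the area under the fitted dose-response curve.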

CAL-120 = experiment: as above
Outline: as §3

Hs578T = experiment: as above
Outline: as §3

MDA-MB-231 [8] = experiment: as above
Outline: as §3

MDA-MB-468 [9] = experiment: as above
Outline: as §3

BT-474 = experiment: as above
Outline: as §3

CAL-51 [10] = experiment: as above
Outline: as §3

HCC1599 = experiment: as above
Outline: as §3

DU-4475 [11] = experiment: as above
Outline: as §3

CAL-85-1 [12] = experiment: as above
Outline: as §3

HCC1143 = experiment: as above
Outline: as §3

MCF-10A = experiment: as above
Outline: as §3

CAL-148 [13] = experiment: as above
Outline: as §3

SMILES | normalised response (HCC1937) [%] | normalised response (MDA-MB-231 [1]) [%] | normalised response (MDA-MB-468 [2]) [%] | normalised response (SK-BR-3) [%] | normalised response (MFM-223) [%] | normalised response (CAL-148 [3]) [%] | normalised viability (HDQ-P1) [%] | normalised viability (MDA-MB-453) [%] | normalised viability (CAL-51 [4]) [%] | normalised viability (DU-4475 [5]) [%] | normalised viability (CAL-85-1 [6]) [%] | normalised viability (CAL-148 [7]) [%] | drug sensitivity score (MDA-MB-436) | drug sensitivity score (CAL-120) | drug sensitivity score (Hs578T) | drug sensitivity score (MDA-MB-231 [8]) | drug sensitivity score (MDA-MB-468 [9]) | drug sensitivity score (BT-474) | drug sensitivity score (CAL-51 [10]) | drug sensitivity score (HCC1599) | drug sensitivity score (DU-4475 [11]) | drug sensitivity score (CAL-85-1 [12]) | drug sensitivity score (HCC1143) | drug sensitivity score (MCF-10A) | drug sensitivity score (CAL-148 [13])
NC1(c2ccc(-c3nc4ccn5c(=O)[nH]nc5c4cc3-c3ccccc3)cc2)CCC1 [MK-2206] (1000 nM) | 86 | 86.1 | 83 | 52.1 | 46.9 | 59.7 | 86.4 | 11 | 45.3 | 53.5 | 58.4 | 36.8 | – | – | – | – | – | – | – | – | – | – | – | – | –
O=C(c1cc(Cc2n[nH]c(=O)c3ccccc23)ccc1F)N1CCN(C(=O)C2CC2)CC1 [Olaparib] (10000 nM) | 91.6 | 77.2 | 69.5 | 78.7 | 88.5 | 64.6 | 96.5 | 78.1 | 39.3 | 71.7 | 80.7 | 56.1 | – | – | – | – | – | – | – | – | – | – | – | – | –
COc1cc2c(N3CCN(C(=O)Nc4ccc(OC(C)C)cc4)CC3)ncnc2cc1OCCCN1CCCCC1 [Tandutinib] (1000 nM) | 100 | 106 | 99.7 | 99 | 98.8 | 97.8 | 128 | 92.9 | 58 | 58.4 | 93 | 71.1 | – | – | – | – | – | – | – | – | – | – | – | – | –
C[C@@H](C(=O)O)c1ccc(-c2ccccc2)c(F)c1 [Tarenflurbil] (10000 nM) | 96.9 | 98.7 | 91.5 | 93.3 | 92.8 | 88.3 | 129 | 84 | 111 | 95.1 | 91.4 | 89.9 | – | – | – | – | – | – | – | – | – | – | – | – | –
CCc1c(C(=O)C(N)=O)c2c(OCC(=O)O)cccc2n1Cc1ccccc1 [Varespladib] | – | – | – | – | – | – | – | – | – | – | – | – | 0 | 0 | 0 | 0 | 0 | 0 | 0 | 0 | 0 | 0 | 0 | 0 | 0
